Data set [1] relates to ovariectomized (OVX) rats. Put plainly: Osteoporosis (bone mineral density) in ovariectomized rat model. Format: in vivo, Sprague Dawley rats. The conditions noted are these: oral in 20% hydroxypropyl β-cyclodextrin, daily for 35 days, femur x-ray image analysis, tibia quantitative computed tomography. From the text: Seventy-five day old female Sprague Dawley rats (weight range of 200g to 225 g) are obtained from Charles River Laboratories (Portage, Mich.). The animals are either bilaterally ovariectomized (OVX) or exposed to a Sham surgical procedure at Charles River Laboratories, and then shipped after one week. Upon arrival, they are housed in metal hanging cages in groups of 3 or 4 per cage and have ad libitum access to food (calcium content approximately 0.5%) and water for one week. Room temperature is maintained at 22.2°±1.7° C. with a minimum relative humidity of 40%. The photoperiod in the room is 12 hours light and 12 hours dark.
Following the General Procedure, infra, the rats are treated daily for 35 days (6 rats per treatment group) and sacrificed by carbon dioxide asphyxiation on the 36th day. The 35 day time period is sufficient to allow maximal reduction in bone density, measured as described herein. At the time of sacrifice, the uteri are removed, dissected free of extraneous tissue, and the fluid contents are expelled before determination of wet weight in order to confirm estrogen deficiency associated with complete ovariectomy. […]
The right femurs are excised and digitilized x-rays generated and analyzed by an image analysis program (NIH image) at the distal metaphysis. The proximal aspect of the tibiae from these animals are also scanned by quantitative computed tomography.

The term melting point denotes the temperature of the solid-liquid transition.

In turn, `COc1ccc(C(=O)c2c(-c3ccc(O)cc3)sc3cc(O)ccc23)cc1` [Example 2, 2-(4-Hydroxyphenyl)-3-(4-Methoxybenzoyl)-6-Hydroxybenzo[b]thiophene] yielded a melting point of 138 to 140 °C.
`COc1ccc(-c2sc3cc(OC)ccc3c2C(=O)c2ccc(O)cc2)cc1` [Example 3, 2-(4-Methoxyphenyl)-3-(4-Hydroxybenzoyl)-6-Methoxybenzo[b]thiophene]: the melting point lay within 114 to 116 °C.
In the case of `C#C[C@]1(O)CC[C@H]2[C@@H]3CCc4cc(O)ccc4[C@H]3CC[C@@]21C` [ethynyl estradiol, 17-α-ethynyl estradiol], the “loss of bone mineral density” value in data set [1] is “a reduction in the loss of bone mineral density”.
